One experiment relates to blood glucose. As to the kind of experiment: Hypoglycaemic activity: reduction in area under blood glucose curve after glucose load. The conditions noted are these: Mus musculus. In kind it is in vivo, Female CFLP mice. On the procedure:
Female CFLP mice, weighing approximately 25 g, were fasted for 24 hours prior to the study. The compounds under study were administered orally as an aqueous solution to each of 6 mice. 30 minutes later a blood sample (10 μl) was obtained from the tail for the analysis of blood glucose. Immediately after taking this blood sample, glucose (1 g/Kg body weight) was administered subcutaneously to each mouse. 6 mice were given water as a control. Blood samples were then obtained from each mouse at 30 minute intervals for 120 minutes.
Compounds that produced a significant (P<0.05) reduction of blood glucose, compared with control mice given water, at any time interval, were considered active. The area under the blood glucose curve over the 2 hour period after the administration of the glucose was calculated for each compound and compared with the value for control animals.

The nature of experiment [1]: Effect on energy expenditure of mice. In kind it is in vivo, Female CFLP mice. The settings on record: Mus musculus; for response vs control in vivo at 21 mg/kg: 21.0 mg/kg po. The protocol: Female CFLP mice, each weighing approximately 24 g were given food and water ad lib before and during the experiment. The compounds were dissolved in water by addition of one mole of hydrochloric acid per mole of compound and these solutions were administered orally to each of 12 mice. A further 12 mice were dosed orally with water. The mice were placed in boxes through which air was drawn and the oxygen content of the air leaving the boxes was measured. The energy expenditure of the mice was calculated for 21 hours after dosing from the volume of air leaving the boxes and its oxygen content, following the principles described by J. B. de V. Weir, J. Physiol. (London), 109, 1-9 (1949).

[2] abbreviates: po, 2 h, read-out: % Reduction in area under Blood Glucose Curve.
The mark [3] stands for this setting: po, 3 h, read-out: Mean Energy Expenditure (0-3 h).
[4] abbreviates: po, 21 h, read-out: Mean Energy Expenditure (0-21 h).
The mark [5] stands for this setting: 25 μmol/Kg oral, 2 h after glucose 1 g/Kg s.c., vs control, read-out: % Reduction in area under Blood Glucose Curve.
Where [6] appears, read: 12.5 μmol/Kg oral, 2 h after glucose 1 g/Kg s.c., vs control, read-out: % Reduction in area under Blood Glucose Curve.

The values that follow come from patent US4629737A, “Secondary amines and use in pharmaceutical compositions” (Beecham Group p.l.c., priority 1982, dated 1986).

Where a name gives a salt, the structure may show the parent alone. Read-outs that look alike come from different tables or passages of the source.

On to `COC(CNC(C)Cc1ccc(CO)cc1)c1cccc(Cl)c1` (stereo not drawn) [Example 31, N-[2-(4-Hydroxymethylphenyl)-1-methylethyl]-2-methoxy-2-(3-chlorophenyl)ethanamine hydrochloride], for which, in the experiment on blood glucose (setting [2]), the inhibition in vivo at 12.5 µmol/kg is 29%. In addition, the response vs control in vivo at 18.5 mg/kg in experiment [1] (setting [3]) came to 103%; in experiment [1] (setting [4]) it was 126%.
For the compound `CCOC(CNC(C)Cc1ccc(C(=O)OC)cc1)c1cccc(Cl)c1` (stereo not drawn) [Example 33, N-[2-(4-Carbomethoxyphenyl)-1-methylethyl]-2-ethoxy-2-(3-chlorophenyl)ethanamine hydrochloride hemihydrate], the inhibition in vivo at 25 µmol/kg with blood glucose (setting [5]) came to 52%. Besides, the response vs control in vivo at 21.1 mg/kg in experiment [1] (setting [4]) came to 122%; in experiment [1] (21.1 mg/kg po, 0-3 h, read-out: Mean Energy Expenditure (0-3 h)) it was 148%.
For `CCOC(CNC(C)Cc1ccc(C(=O)NC)cc1)c1cccc(Cl)c1` (stereo not drawn) [Example 34, N-[2-(4-N'-Methylcarboxamidophenyl)-1-methylethyl]-2-ethoxy-2-(3-chlorophenyl)ethanamine hydrochloride], the inhibition in vivo at 25 µmol/kg in the experiment on blood glucose (setting [5]) was 34%. Moreover, the response vs control in vivo at 20.6 mg/kg in experiment [1] (setting [4]) worked out at 116%; in experiment [1] (20.6 mg/kg po, 0-3 h, read-out: Mean Energy Expenditure (0-3 h)) it was 148%.
On to `CNCc1ccc(CC(C)NCC(OC)c2cccc(Cl)c2)cc1` (stereo not drawn) [Example 35, N-[2-(4-N'-Methylaminomethylphenyl)-1-methylethyl]-2-methoxy-2-(3-chlorophenyl)ethanamine dihydrochloride], for which, in the experiment on blood glucose (setting [6]), the inhibition in vivo at 12.5 µmol/kg is 10%. Further, the response vs control in vivo at 21 mg/kg in experiment [1] (0-3 h, read-out: Mean Energy Expenditure (0-3 h)) was determined as 124%; in experiment [1] (0-21 h, read-out: Mean Energy Expenditure (0-21 h)), 123%.
For `COC(=O)COc1ccc(CC(C)NCC(OC)c2cc3ccccc3o2)cc1` (stereo not drawn) [Example 36, N-[2-(4-Carbomethoxymethoxyphenyl)-1-methylethyl]-2-methoxy-2-(2-benzofuranyl)ethanamine hydrochloride], the inhibition in vivo at 2.5 µmol/kg in the experiment on blood glucose (setting [2]) was found to be 30%. In addition, the results for the response vs control in vivo at 21.6 mg/kg in experiment [1] (setting [3]) and in experiment [1] (setting [4]) were 131% and 104%, respectively.
Consider `CNC(=O)COc1ccc(CC(C)NCC(OC)c2cc3ccccc3o2)cc1` (stereo not drawn) [Example 37, N-[2-(4-Methylaminocarbonylmethoxyphenyl)-1-methylethyl]-2-methoxy-2-(2-benzofuranyl)ethanamine dihydrochloride], for which the inhibition in vivo at 1 µmol/kg in the experiment on blood glucose (setting [2]) worked out at 26%. The response vs control in vivo at 23.6 mg/kg in experiment [1] (setting [3]) is 134%; in experiment [1] (setting [4]) it was 106%.
As for `COc1cccc(CC(C)NCC(OC)c2cccc(Cl)c2)c1` (stereo not drawn) [Example 39, N-[2-(3-Methoxyphenyl)-1-methylethyl]-2-methoxy-2-(3-chlorophenyl)ethanamine hydrochloride], in the experiment on blood glucose (setting [2]), the inhibition in vivo at 25 µmol/kg was determined as 15%. The response vs control in vivo at 18.5 mg/kg in experiment [1] (setting [3]) was 130%; in experiment [1] (setting [4]) it was 103%.
For `COC(CNC(C)Cc1ccc(SC(C)C)cc1)c1cccc(Cl)c1` (stereo not drawn) [Example 40, N-[2-(4-Isopropylthiophenyl)-1-methylethyl]-2-methoxy-2-(3-chlorophenyl)ethanamine hydrochloride], the inhibition in vivo at 12.5 µmol/kg in the experiment with blood glucose (setting [2]) worked out at 31%. The response vs control in vivo at 20.7 mg/kg in experiment [1] (setting [3]) is 128%; in experiment [1] (setting [4]), 111%.
Turning to `COC(CNC(C)Cc1ccc(N(C)C)cc1)c1cccc(Cl)c1` (stereo not drawn) [Example 41, N-[2-(4-Dimethylaminophenyl)-1-methylethyl]-2-methoxy-2-(3-chlorophenyl)ethanamine dihydrochloride hemihydrate], the inhibition in vivo at 12.5 µmol/kg in the experiment on blood glucose (setting [2]) came out at 45%. The response vs control in vivo at 21.4 mg/kg in experiment [1] (setting [3]) was found to be 107%; in experiment [1] (setting [4]) it was 116%.
Consider `CCCCOC(CNC(C)Cc1ccc(OCC(=O)OC)cc1)c1cccc(Cl)c1` (stereo not drawn) [Example 42, N-[2-(4-Carbomethoxymethoxyphenyl)-1-methylethyl]-2-^n butoxy-2-(3-chlorophenyl)ethanamine hydrochloride], for which, in the experiment on blood glucose (5 μmol/Kg oral, 2 h after glucose 1 g/Kg s.c., vs control, read-out: % Reduction in area under Blood Glucose Curve), the inhibition in vivo at 5 µmol/kg worked out at 37%. Further, the response vs control in vivo at 23.5 mg/kg in experiment [1] (setting [4]) came to 114%; in experiment [1] (23.5 mg/kg po, 0-3 h, read-out: Mean Energy Expenditure (0-3 h)), 158%.
In the case of `CCCCOC(CNC(C)Cc1ccc(OCC(=O)NC)cc1)c1cccc(Cl)c1` (stereo not drawn) [Example 43, N-[2-(4-Methylaminocarbonylmethoxyphenyl)-1-methylethyl]-2-^n butoxy-2-(3-chlorophenyl)ethanamine hydrochloride hemihydrate], the inhibition in vivo at 2.5 µmol/kg with blood glucose (2.5 μmol/Kg oral, 2 h after glucose 1 g/Kg s.c., vs control, read-out: % Reduction in area under Blood Glucose Curve) was 31%. In addition, the response vs control in vivo at 24.2 mg/kg in experiment [1] (24.2 mg/kg po, 0-3 h, read-out: Mean Energy Expenditure (0-3 h)) worked out at 144%; in experiment [1] (24.2 mg/kg po, 0-21 h, read-out: Mean Energy Expenditure (0-21 h)), 105%.
`CCCCCCOC(CNC(C)Cc1ccc(OCC(=O)OC)cc1)c1cccc(Cl)c1` (stereo not drawn) [Example 44, N-[2-(4-Carbomethoxymethoxyphenyl)-1-methylethyl]-2-^n hexyloxy-2-(3-chlorophenyl)ethanamine hydrochloride] registered an inhibition in vivo at 7.5 µmol/kg in the experiment on blood glucose (7.5 μmol/Kg oral, 2 h after glucose 1 g/Kg s.c., vs control) of 34%. The response vs control in vivo at 24.9 mg/kg in experiment [1] (setting [3]) was found to be 145%; in experiment [1] (24.9 mg/kg po, 0-21 h, read-out: Mean Energy Expenditure (0-21 h)), 101%.
With `CNCCOc1ccc(CC(C)NCC(OC)c2cccc(C(F)(F)F)c2)cc1` (stereo not drawn) [Example 46, N-[2-(4-(2-Methylaminoethoxy)phenyl)-1-methylethyl]-2-methoxy-2-(3-trifluoromethylphenyl)ethanamine dihydrochloride], the inhibition in vivo at 5 µmol/kg in the experiment with blood glucose (setting [2]) was determined as 20%. The response vs control in vivo at 24.2 mg/kg in experiment [1] (setting [3]) turned out to be 122%; in experiment [1] (setting [4]) it was 104%.
As to `COC(=O)/C=C/c1ccc(CC(C)NCC(OC)c2cccc(Cl)c2)cc1` (stereo not drawn) [Example 47, N-[2-(4-{[E]-2-Carbomethoxyethenyl}phenyl)-1-methylethyl]-2-methoxy-2-(3-chlorophenyl)ethanamine hydrochloride], the inhibition in vivo at 12.5 µmol/kg in the experiment with blood glucose (setting [2]) amounted to 41%. The response vs control in vivo at 21.3 mg/kg stood at 130% in experiment [1] (setting [3]) and 109% in experiment [1] (setting [4]).
With `COC(CNC(C)Cc1ccc(OCCO)cc1)c1cccc(Cl)c1` (stereo not drawn) [Example 48, N-[2-{4-(2-Hydroxyethoxy)phenyl}-1-methylethyl]-2-methoxy-2-(3-chlorophenyl)ethanamine hydrobromide], the inhibition in vivo at 0.5 µmol/kg in the experiment on blood glucose (setting [2]) was 31%. For the same compound, the response vs control in vivo at 22.2 mg/kg in experiment [1] (setting [3]) amounted to 128%; in experiment [1] (setting [4]), 131%.
Turning to `COC(=O)Cc1ccc(CC(C)NCC(OC)c2cccc(Cl)c2)cc1` (stereo not drawn) [Example 49, N-[2-(4-Carbomethoxymethylphenyl)-1-methylethyl]-2-methoxy-2-(3-chlorophenyl)ethanamine hydrochloride], in the experiment on blood glucose (setting [2]), the inhibition in vivo at 12.5 µmol/kg was determined as 47%. Moreover, the figures for the response vs control in vivo at 20.6 mg/kg in experiment [1] (setting [3]) and in experiment [1] (setting [4]) were 131% and 135%, respectively.
On to `COC(=O)COc1ccc(CC(C)NCC(OCc2ccccc2)c2cccc(Cl)c2)cc1` (stereo not drawn) [Example 50, N-[2-(4-Carbomethoxymethoxyphenyl)-1-methylethyl]-2-benzyloxy-2-(3-chlorophenyl)ethanamine hydrochloride], for which the inhibition in vivo at 2.5 µmol/kg in the experiment on blood glucose (setting [2]) was found to be 41%. For the same compound, the response vs control in vivo at 24.6 mg/kg in experiment [1] (setting [3]) stood at 142%; in experiment [1] (setting [4]), 116%.
As for `CNC(=O)COc1ccc(CCNCC(OC)c2cccc(Cl)c2)cc1` (stereo not drawn) [Example 51, N-[2-(4-Methylaminocarbonylmethoxyphenyl)ethyl]-2-methoxy-2-(3-chlorophenyl)ethanamine hydrochloride], in the experiment on blood glucose (setting [6]), the inhibition in vivo at 12.5 µmol/kg amounted to 45%. For the same compound, the response vs control in vivo at 20.7 mg/kg in experiment [1] (setting [4]) was found to be 108%; in experiment [1] (20.7 mg/kg po, 0-3 h, read-out: Mean Energy Expenditure (0-3 h)), 128%.
On to `CNC(=O)COc1ccc(CC(C)NCC(COc2ccccc2)OC)cc1` (stereo not drawn) [Example 52, N-[2-(4-Methylaminocarbonylmethoxyphenyl)-1-methylethyl]-2-methoxy-3-phenoxypropanamine hydrochloride], for which the inhibition in vivo at 12.5 µmol/kg in the experiment with blood glucose (setting [2]) is 35%. Besides, the response vs control in vivo at 21.1 mg/kg in experiment [1] (setting [3]) turned out to be 130%; in experiment [1] (setting [4]), 113%.
Take `CNC(=O)COc1ccc(CC(C)NCC(OC)c2ccccc2F)cc1` (stereo not drawn) [Example 55, N-[2-(4-Methylaminocarbonylmethoxyphenyl)-1-methylethyl]-2-methoxy-2-(2-fluorophenyl)ethanamine hydrochloride]: the inhibition in vivo at 12.5 µmol/kg in the experiment on blood glucose (setting [2]) stood at 42%. Besides, the results for the response vs control in vivo at 20.6 mg/kg in experiment [1] (setting [3]) and in experiment [1] (setting [4]) were 150% and 121%, respectively.
